Key:
[1] = Actual solubility in aqueous buffers; type: physicochemical; conditions: aqueous buffer
Description: The actual solubility of certain compounds of the invention was assessed in aqueous buffers and final concentration of compounds was determined using HPLC and spectrophotometer methodologies.

[2] = test system: conscious rats with partial urethral obstruction; experiment: Cystometry in conscious rats with partial urethral obstruction (PUO); type: in vivo, rat; conditions: 3 mg/kg IP daily for 2 weeks
Description: The effect of chronic treatment with the compound of Formula I on bladder function was studied by cystometry in conscious rats with partial urethral obstruction (“PUO”) after 2 weeks of treatment with the compound of Formula I. Protocols for animals and bladder catheter implantation were as in Example 4 above.
The bladder and urethra was exposed via a mid-line incision of the lower abdom. A 19 gauge needle (0.9 mm OD) was placed on the surface of the urethra, and a 3-0 black mono nylon suture was firmly tied over the urethra and the ligation was left in place for the duration of the study. The needle was then removed and the diameter and position of the ligature was then inspected to ensure that a partial urethral obstruction was obtained. The abdominal cavity was then closed in layers with single cross-sutures (5-0 black polyfilament nylon suture). Animals were then housed in individual cages for two weeks before cystometry were performed.
The appropriate solution of the compound of Formula I was prepared on the day of the experiment using PBS as the vehicle. A stock solution of 10 mg/ml in PBS was used and the animals were administered daily, weight-controlled doses of 3 mg/kg compound of Formula I or vehicle by intraperitoneal (“IP”) injection over the 2 week treatment period, starting on the day of PUO surgery.
Cystometry was performed without anesthesia three days after the implantation of bladder catheters in rats with PUO, and after two weeks of daily treatment with the compound of Formula I. The conscious rats were placed in metabolic cages without restraint and the bladder catheters were connected via a T-tube to a pressure transducer (P23 DC; Statham Instruments Inc., Oxnard, Calif.) and a microinjection pump (CMA 100; Carnegie Medicine AB, Solna, Sweden). Micturition volumes were recorded with a fluid collector connected to a force displacement transducer (FT 03 D, Grass Instrument Co., Quincy, Mass.). Room-temperature saline was infused into the bladder continuously at a rate of 10 ml/h. Bladder size increases several-fold in rats subjected to PUO. Therefore, an infusion rate of 20 ml/h was used during cystometry in these animals. Pressures and micturition volumes were recorded continuously with Acq Knowledge 3.8.1 software and a MP100 data acquisition system (Biopac Syst. Inc. Santa Barbara, Calif.) connected to a Grass polygraph (Model 7E, Grass Instrument Co). At the beginning of cystometry, the bladder was emptied via the bladder catheter.
The following urodynamic parameters were investigated: micturition pressure (“MP;” maximum bladder pressure during micturition), threshold pressure (“ThP”; bladder pressure at start of detrusor contraction), flow pressure (“FP”; bladder pressure when urethra opens), MI (time between two micturitions), micturition volume (“MV”; volume of the expelled urine), and RV (volume left in bladder after a micturition). At least a 30-minute period with stable and reproducible micturitions was recorded before drug administration and used as baseline value, to be compared with a corresponding stable 30-minute period after drug administration. For multiple comparisons, a one-way analysis of variance for repeated measures (Holm-Sidak) was used. Pairwise and non-pairwise comparisons were made by Student's t-test. All statistical calculations are based on the number of individual animals, and significant differences are accepted when p<0.05.
As used herein, the term “chronic” means that the animals were dosed once/day for 14 days, prior to taking the cystometry measurements. For specific investigation and analysis of NVCs, the PUO should beneficially be removed approximately 2-3 days prior to the urodynamic investigation. […]

[3] = test system: isolated detrusor from rats with partial urethral obstruction; experiment: Carbachol-induced contractions in bladder strips from PUO rats; type: ex vivo, rat; conditions: strips from PUO rats treated for 2 weeks
Description: The effect of chronic treatment with the compound of Formula I was studied in contractility studies with isolated bladder strips from rats with PUO after 2 weeks of treatment with the compound of Formula I.
Bladder strips (2×2×6 mm) were dissected from PUO rat bladders. Silk ligatures were applied at both ends of the preparations which then were mounted on metal prongs in 5 ml aerated (95% O2 and 5% CO2) tissue baths (37° C.) containing Krebs solution. Mechanical activity was registered with Grass FT 03C force transducers connected to a Grass Polygraph model 7E. The preparations were stretched to a tension of approximately 10 mN and left to equilibrate for 45 minutes to attain a stable resting tonus. To establish the viability of the preparations and to determine a standard contractile level, preparations were exposed to a 60 mM K^+ Krebs solution. The effects of cumulative addition of carbachol, a non-selective muscarininc agonist (1 nM-0.1 mM), were studied in strip preparations from vehicle-treated and compound of Formula I-treated rats with PUO.
Transmural activation of nerves was performed with two platinum electrodes, placed in parallel to the sides of the strips in the organ baths. […] All contractile responses were expressed as a percentage of the contraction elicited by 60 mM K^+ Krebs solution. […]

CCCCCCC(C)(C)c1cc(O)c([C@H]2CC(=O)[C@H]3C[C@@H]2C3(C)C)c(OC(=O)/C=C/C(=O)O)c1 [Formula I]
solubility [1]: > 10 mg/mL
Incidence of NVC ([2]; PUO rats): 20%
Mean bladder weight ([2]; PUO rats, n=10, not significant): 0.88 ± 0.13 g
Micturition pressure (MP) ([2]; PUO rats, ns): 116.0±17.4 cmH2O
Mean flow pressure (FP) ([2]; PUO rats, p<0.002): 87.4±8.7 cmH2O
Mean threshold pressure (ThP) ([2]; PUO rats, p<0.002): 39.4±4.9 cmH2O
Micturition interval (MI) ([2]; PUO rats, p<0.01): 84 ± 10 s
Micturition volume (MV) ([2]; PUO rats, p<0.02): 0.43 ± 0.07 mL
Residual volume (RV) ([2]; PUO rats, p<0.02): 0.09 ± 0.05 mL
Micturition frequency ([2]; PUO rats, p<0.03): 53±11 micturitions per hour
PUO rats exhibiting non-voiding contractions (NVCs) ([2]; p<0.04): 2 out of 10
Carbachol-induced detrusor contractions vs vehicle-treated PUO rats ([3]; carbachol 1 nM to 1 μM): no differences
Maximal response to carbachol vs vehicle-treated PUO rats ([3]; simultaneous curve fitting, p<0.0008): significant increase

Reference: patent US20090312414A1, “Treatment Of Lower Urinary Tract Dysfunction With CB2-Receptor-Selective Agonists” (priority 2008, published 2009)
